According to US8318196B2, “Formulations comprising a vitamin and the use thereof to make fortified feed and personal care formulations” (Akzo Nobel N.V., priority 2006, dated 2012):

Assay: Transmission of aqueous vitamin / castor oil ethoxylate formulations (Turbiscan LAb)
Assay type: physicochemical
Details: ingredients preheated to 50° C.
Description: Castor oil ethoxylates were evaluated in formulations with various vitamins by mixing 4 g of a vitamin with 4 g of the castor oil ethoxylate and subsequently adding 28 g water. All ingredients were preheated to 50° C. The transmission (light passing the through the emulsion) was measured using standard Turbiscan™ LAb equipment ex Formulaction. In the evaluation of the samples the highest transmission is looked for, since it indicates a clearer (and better) formulation.

[1] = Comparative Example B: 4 g vitamin + 4 g CO36EO + 28 g water, unit assumed
[2] = Example 1: 4 g vitamin + 4 g CO20EO + 28 g water, higher = clearer, better, unit assumed

transmission (light passing through the emulsion) (Comparative Example A: 4 g vitamin + 4 g CO28EO + 28 g water) | SMILES | transmission (light passing through the emulsion) [1] [%] | transmission (light passing through the emulsion) [2] [%] | transmission (light passing through the emulsion) (Comparative Example A: 4 g vitamin + 4 g CO28EO + 28 g water, unit assumed) [%]
Not stable | CC(=O)OC/C=C(C)/C=C/C=C(C)/C=C/C1=C(C)CCCC1(C)C [Vit A acetate] | 0 | 2.2 | 
 | C=C1CC[C@H](O)C/C1=C/C=C1\CCC[C@]2(C)[C@@H]([C@H](C)CCCC(C)C)CC[C@@H]12 [Vit D3] | 2 | 56.7 | 64.4
